{
  "source": "patent US20250176877A1",
  "about": "“SENSING PLATFORMS WITH NEEDLES AND METHODS OF FABRICATION AND USE” (Purdue Research Foundation, priority 2023, published 2025)",
  "test_system": "HL-1 cells",
  "conditions": "100 nM nifedipine, control without drug 0.85±0.17 mV",
  "method": "The surface of the sensing platform 10 was coated with a gelatin solution to ensure cell adhesion, and no additional functionalization agents were used. […] To further improve the adhesion of the needles 12 to the cell membrane, mechanoporation was conducted by centrifuging at 500 rpm for one minute. Electroporation was followed using a series of biphasic square pulses to facilitate electrical access to the intracellular region. […] In order to showcase the live imaging capabilities through the optical transparency of the sensing platform 10, concurrent calcium ion (Ca^2+) flux imaging was simultaneously performed using an inverted microscope—a standard tool that is compatible only with transparent substrates. For Ca^2+ flux imaging, Fluo-8, a fluorescent calcium indicator, was loaded into the cells for live imaging, and the alteration in fluorescent intensity (AF) was measured and compared with the resting intensity (F0).\nTo evaluate the signal quality of the sensing platform 10, a comparative analysis of signal amplitude was conducted in comparison to a control group including the needles on a Si wafer. The measurements were limited to the cells that had been beating at approximately 1 Hz for at least one day, as the recorded amplitude and beating interval can vary with cell culture age.",
  "data": [
    {"smiles": "COC(=O)C1=C(C)NC(C)=C(C(=O)OC)C1c1ccccc1[N+](=O)[O-]", "note": "[nifedipine]", "values": [
      {"measurement": "peak amplitude of action potential", "value": "0.55±0.12", "unit": "mV"}
    ]}
  ]
}
